Results taken from US8093210B2, “Treatment of sepsis with 5-ethyl-1-phenyl-2(1H)-pyridone” (Solanan, Inc., priority 2008, dated 2012).
In brackets after ≈: the same amount, converted by molar mass. Several values for one entry are separate records, joined by “and”; a condition that tells them apart may be missing. Equal entries are not always repeated. Where two headings read alike, the source gives them in different places.

How the values were obtained:
[1] = LD50 estimate after a single intraperitoneal dose (Example 8); type: in vivo; conditions: male, Swiss-Webster, mouse, in vivo, ip; mice; single intraperitoneal dose; sigmoidal curve fit, R^2=0.949
Protocol: (§1) Male Swiss-Webster mice were obtained from standard commercial sources at 7 weeks of age, housed in the laboratory for at least 1 week prior to use and were provided standard mouse chow and water ad libitum. Animals were subjected to a 12 hour/12 hour light-dark cycle.
(§2) Six groups of mice were injected via the intraperitoneal route with 5-EPP (250-500 mg/kg) dissolved in sterile isotonic saline, immediately replaced in their cages and then observed carefully for the next 6-8 hours. A LD50 value was estimated from the mortality data by a non-linear curve fitting program (Prism™ for Windows 4.02).

Male Swiss-Webster mice = test: as above; type: in vivo
Protocol: as §1, §2

THP-1 cells = test: MTS cytotoxicity analysis on THP-1 cells; type: cell-based; conditions: LPS 1 ng/mL and 5-EPP 0-500 μg/mL for 12 hours
Protocol: Cytotoxicity analysis was performed on THP-1 cells treated with various concentrations of 5-EPP using the MTS (3-(4,5-dimethylthiazol-2-yl)-5-(3-carboxymethoxyphenyl)-2-(4-sulfophenyl)-2H-tetrazolium, inner salt) assay (Promega, Madison, Wis.).

[2] = Solubility in water and isotonic saline (Example 9); type: physicochemical; conditions: for solubility: thermodynamic from solid, room temperature, colorless, clear solution, read-out: solubility (soluble at)
Protocol: All solutions were prepared by weighing the chemical, transferring his solid into a polypropylene tube or polystyrene tube and then adding either water or saline to the final desired volume. The compound was dissolved by intermittent mixing with a vortex mixer, gentle heating in a warm water bath (40-45° C.) and sonication (3×15 min.).

[3] = test system: LPS/D-galactosamine-induced mortality; test: LPS/D-galactosamine-induced mortality in mice, survival curve (Example 7, FIG. 2); type: in vivo; conditions: LPS 20 μg/kg + D-galactosamine 600 mg/kg, monitored 4 days
Protocol: The effects of treatment with 5-EPP on LPS/D-galactosamine-induced mortality was investigated in mice. At least 10 mice in each group were challenged with either a lethal dose of LPS (20 μg/kg) and D-galactosamine (600 mg/kg) or the same dose of LPS/D-galactosamine+different doses of 5-EPP by intraperitoneal route and the morality in each group was monitored at different times for 4 days in order to evaluate the protective effects of 5-EPP against LPS/D-galactosamine-induced mortality.
However, the survival of mice treated with 25 mg/kg of 5-EPP was 45% and 100% at 50 mg/kg, 100 mg/kg and 200 mg/kg with p≦0.0001 as determined by Chi square test.

[4] = test system: LPS/D-galactosamine model of sepsis; test: Serum alanine and aspartate transaminase in LPS/D-galactosamine model of sepsis (Example 5); type: in vivo, mice; conditions: 200 mg/kg ip with LPS (10 μg/kg)/D-galactosamine (600 mg/kg)
Protocol: (§3) Mice were treated simultaneously with LPS (10 μg/kg) and D-galactosamine (600 mg/kg) (Galanos C, Freudenberg M A, Reutter W. Proc Natl Acad Sci USA. 1979, 76 (11):5939-43) and 5-EPP (200 mg/kg) by intraperitoneal route in a separate set of experiments. They were anesthetized with halothane and blood was collected at different times by cardiac puncture and centrifuged to separate serum. The serum levels of alanine transaminase (ALT) and aspartate transaminase (AST) were measured by a commercial diagnostic company (Idexx Laboratories). The serum levels of tumor necrosis factor-alpha (TNF-α), interleukin-6 (IL-6) and interleukin-12 (IL-12) were determined by commercially available mouse enzyme-linked immunosorbent assay (ELISA) kits (BD BioSciences, San Jose, Calif.).
(§4) The methodology utilized in Example 4 was used to measure and analyze the serum enzyme data for statistical significance. The serum levels of proinflammatory cytokines between the 5-EPP treated and saline control groups were analyzed for statistical significance by one-way ANOVA and a Tukey's multiple comparison test (Prism™ for Windows 4.02, Graphpad Software, Inc. San Diego, Calif.).

[5] = pH of 20 mg/mL solutions (Example 9); type: physicochemical
Protocol: The pH of two freshly prepared solutions of the compound each at 20 mg/mL concentration was measured with a calibrated Mettler MP-220 pH meter equipped with a pH electrode (model 413). The pH of the solution made in water averaged 7.4 as compared to solutions made in isotonic saline in which the pH averaged 6.21 using triplicate samples in each case, as shown in the table below.

TNF-α = test: Serum TNF-α (ELISA) in LPS/D-galactosamine model of sepsis (Example 5); type: in vivo, mice; conditions: 90 minutes after the treatment
Protocol: as §3, with “Proc Natl Acad Sci USA. 1979, 76 (11):5939-43) and 5-EPP (200 mg/kg) by intraperitoneal route in a separate set of experiments.” left out
as §4

IL-6 = test: Serum IL-6 (ELISA) in LPS/D-galactosamine model of sepsis (Example 5); type: in vivo, mice; conditions: 90 minutes after the treatment
Protocol: as §3, with “Proc Natl Acad Sci USA. 1979, 76 (11):5939-43) and 5-EPP (200 mg/kg) by intraperitoneal route in a separate set of experiments.” left out
as §4

LPS-induced septic shock = test: Lethal shock caused by LPS alone, survival of mice (Example 3); type: in vivo; conditions: LPS alone (30 mg/kg), 100 mg/kg i.p., monitored for 4 days
Protocol: The survival of mice subjected to treatment of the agent and LPS alone pursuant to the methodology of Galanos C, Freudenberg M A, Reutter W. Proc Natl Acad Sci USA. 1979 November; 76 (11)5939-43) was observed. This procedure is believed to evoke a pathophysiological response which is more like that observed during septic shock than that caused by the LPS and galactosamine.
All agents were injected simultaneously via the intraperitoneal route and the response compared to a placebo agent (saline).
The animals were monitored for 4 days after treatment and the resulting data analyzed by the same Fisher exact test and criteria as before.

[6] = DI Water, final 5-EPP 20.0 mg/mL
[7] = Isotonic saline, final 5-EPP 20.0 mg/mL
[8] = Isotonic saline, final 5-EPP 20.1 mg/mL

CCc1ccc(=O)n(-c2ccccc2)c1 [5-EPP, 5-ethyl-1-phenyl-2-(1H)-pyridone]
LD50 [1]: 380 mg/kg | time to ataxia, loss of the righting reflex and labored breathing (Male Swiss-Webster mice; highest doses (450-500 mg/kg) ip): ≤ 5 min | absorption and distribution, suggested by rapid onset of symptoms (Male Swiss-Webster mice; intraperitoneal route): rapidly absorbed and distributed across the blood-brain barrier | time over which symptoms gradually lessened until animals appeared unaffected (Male Swiss-Webster mice; lower doses ip): 1 to 2 h | LD100 (Male Swiss-Webster mice; single intraperitoneal dose, raw mortality data): 450 to 500 mg/kg | concentration at which cytotoxicity appears (no cytotoxicity below) (THP-1 cells): at least 300 μg/mL | Results (solubility) [2, 6]: soluble | Results (solubility) [2, 7]: soluble | Results (solubility) [2, 8]: soluble | solubility ([2]; saline or isotonic, saline): 20 mg/mL (≈ 100 mM) | precipitation of dissolved compound ([2]; standing at room temperature overnight or following refrigeration): no precipitation was observed | solubility ([2]; water): 20 mg/mL (≈ 100 mM) | concentrations that do not completely dissolve ([2]; water or saline): ≥ 30000 µg/mL | survival ([3]; 25 mg/kg ip): 45% | survival ([3]; 50 mg/kg ip): 100% | survival ([3]; 100 mg/kg ip): 100% | survival ([3]; 200 mg/kg ip): 100% | serum level of alanine transaminase ([4]; After 3 Hours): 109.4 ± 6.1 U/L | serum level of aspartate transaminase ([4]; After 3 Hours): 131.3 ± 11.9 U/L | serum level of alanine transaminase ([4]; After 6 Hours): 130.0 ± 8.9 U/L | serum level of aspartate transaminase ([4]; After 6 Hours): 152.38 ± 14.4 U/L | serum level of alanine transaminase ([4]; After 12 Hours): 109.5 ± 8.3 U/L | serum level of aspartate transaminase ([4]; After 12 Hours): 173.38 ± 13.0 U/L | pH of the solution, average ([5]; 20 mg/mL in isotonic saline): 6.21 | pH of the solution, average ([5]; 20 mg/mL in water): 7.4 | pH [5, 6]: 7.29 and 7.24 | pH [5, 7]: 6.13 | pH [5, 8]: 6.20 | serum level of TNF-α (TNF-α; 12.5 mg/kg): 5,220 ± 1280 pg/mL | serum level of TNF-α (TNF-α; 25 mg/kg): 2,780 ± 481 pg/mL | serum level of TNF-α (TNF-α; 50 mg/kg): 576 ± 79 pg/mL | serum level of TNF-α (TNF-α; 100 mg/kg): 340 ± 34 pg/mL | serum level of IL-6 (IL-6; 50 mg/kg): 9,980 ± 564 pg/mL | serum level of IL-6 (IL-6; 100 mg/kg): 5,111 ± 343 pg/mL | serum level of IL-6 (IL-6; 200 mg/kg): 3,578 ± 421 pg/mL | mortality (LPS-induced septic shock): 30% mortality
